Common to all, as to format: biochemical
Experiment [1] deals with T1, human CSNK1A1 (Homo sapiens (Human), UniProt P48729). Description: CSNK1A1 Assay 2 (ADP-Glo, 1 μM ATP). To be noted: substrate biotin-Ahx-KRRRAL-pS-VASLPGL, read-out: CSNK1A1 Assay 2 IC50 [mol/l] (median). In outline: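 Full-length human CSNK1A1 as an N-terminal GST fusion (baculovirus/insect cells) with biotinylated peptide substrate biotin-Ahx-KRRRAL-pS-VASLPGL and 1 μM ATP, in HEPES pH 7.5 buffer. Compounds were pre-incubated with enzyme (~0.0375 ng/μL) for 15 min at 22 °C. Generated ADP was read by ADP-Glo luminescence as the activity measure.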
T1 sequence (P48729 whole entry, the tested form may be a part): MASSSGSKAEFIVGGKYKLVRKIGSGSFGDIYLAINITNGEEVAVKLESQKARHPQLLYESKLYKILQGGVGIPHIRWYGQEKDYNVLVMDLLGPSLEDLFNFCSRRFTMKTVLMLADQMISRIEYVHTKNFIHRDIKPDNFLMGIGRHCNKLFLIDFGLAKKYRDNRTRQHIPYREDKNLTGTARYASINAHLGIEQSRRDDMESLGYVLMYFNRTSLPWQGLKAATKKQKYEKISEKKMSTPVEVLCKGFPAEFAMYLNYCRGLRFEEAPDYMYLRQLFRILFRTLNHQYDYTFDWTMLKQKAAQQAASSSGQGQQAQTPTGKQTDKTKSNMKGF
In general terms: ADP-Glo turns the ADP formed in a reaction into a luminescent signal.

The next experiment has as its target human CSNK1D (Homo sapiens (Human), UniProt P48730). Description: CSNK1D Assay (ADP-Glo, 1 μM ATP). To be noted: read-out: CSNK1D IC50 [mol/l] (median). In outline:
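GST-tagged full-length human CSNK1D from baculovirus-infected insect cells, typically ~0.5 ng/μL, with biotinylated peptide substrate and 1 μM ATP in HEPES pH 7.5 buffer. Compound is preincubated with enzyme 15 min at 22 °C. ADP formed is quantified by ADP-Glo luminescence.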

Experiment [2] has as its target T1, human CSNK1A1. Description: CSNK1A1 High ATP Assay (ADP-Glo, 1 mM ATP). To be noted: read-out: CSNK1A1 high ATP assay IC50 [mol/l] (median). The gist of the method: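 GST-tagged full-length human CSNK1A1 from baculovirus-infected insect cells (typically about 0.4 ng/μL), pre-incubated with compound 15 min at 22 °C. Reaction with biotinylated peptide biotin-Ahx-KRRRAL-pS-VASLPGL at 1 mM ATP. ADP formed read by ADP-Glo luminescence.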

Experiment [3] concerns the target wild-type Epidermal Growth Factor Receptor (EGFR) (Homo sapiens (Human), UniProt P00533). The experiment in a line: WT-EGFR Kinase Assay (TR-FRET, 2 mM ATP). The conditions noted are these: read-out: EGFR Wildtyp- 2 mM ATP IC50 [mol/l] (median). Background: In TR-FRET formats the signal depends on donor and acceptor labels being close together.

Where only a bound is given, the exact number is not on record here.

Chain of human CSNK1D (P48730 whole entry): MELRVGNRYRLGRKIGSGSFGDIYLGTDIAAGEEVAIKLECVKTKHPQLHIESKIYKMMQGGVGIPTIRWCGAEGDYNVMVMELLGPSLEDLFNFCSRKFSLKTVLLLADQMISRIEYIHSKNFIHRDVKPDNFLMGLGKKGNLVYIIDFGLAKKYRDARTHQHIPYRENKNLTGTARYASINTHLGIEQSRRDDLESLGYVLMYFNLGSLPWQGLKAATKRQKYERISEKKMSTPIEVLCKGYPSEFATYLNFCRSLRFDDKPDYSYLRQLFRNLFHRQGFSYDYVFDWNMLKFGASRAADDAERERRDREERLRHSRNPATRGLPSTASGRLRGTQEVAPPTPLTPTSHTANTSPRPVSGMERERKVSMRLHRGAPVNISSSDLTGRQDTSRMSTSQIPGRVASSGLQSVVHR
Chain of wild-type Epidermal Growth Factor Receptor (EGFR) (P00533 669-1210): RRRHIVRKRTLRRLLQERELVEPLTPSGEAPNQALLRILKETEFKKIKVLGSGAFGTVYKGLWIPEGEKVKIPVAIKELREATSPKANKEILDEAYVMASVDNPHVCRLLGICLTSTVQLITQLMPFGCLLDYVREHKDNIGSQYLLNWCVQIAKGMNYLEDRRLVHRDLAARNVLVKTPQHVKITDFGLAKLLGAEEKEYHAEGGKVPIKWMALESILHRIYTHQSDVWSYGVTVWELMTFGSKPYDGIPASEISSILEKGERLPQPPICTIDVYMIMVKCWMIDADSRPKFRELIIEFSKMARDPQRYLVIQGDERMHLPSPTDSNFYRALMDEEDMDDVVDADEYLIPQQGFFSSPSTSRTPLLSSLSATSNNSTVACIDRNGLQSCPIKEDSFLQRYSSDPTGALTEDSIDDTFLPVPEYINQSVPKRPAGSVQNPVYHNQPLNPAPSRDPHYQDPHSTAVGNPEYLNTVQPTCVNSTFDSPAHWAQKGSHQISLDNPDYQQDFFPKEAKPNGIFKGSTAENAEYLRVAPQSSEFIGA

For `CC1(C)Cc2[nH]c(-c3ccnc(NC(=O)Cc4cccnc4)c3)c(Nc3ccccc3)c2C(=O)N1` [Example 52, N-[4-(3-anilino-6,6-dimethyl-4-oxo-4,5,6,7-tetrahydro-1H-pyrrolo[3,2-c]pyridin-2-yl)pyridin-2-yl]-2-(pyridin-3-yl)acetamide], the IC50 on human CSNK1A1 [1] worked out at 4.91 nM; on human CSNK1D, 6.78 nM; on human CSNK1A1 [2], 25.4 nM; in experiment [3], 526 nM.
Turning to `COCCN1CCc2[nH]c(-c3ccnc(NC(=O)Cc4ccc(F)cc4)c3)c(Nc3ccccc3)c2C1=O` [Example 53, N-{4-[3-anilino-5-(2-methoxyethyl)-4-oxo-4,5,6,7-tetrahydro-1H-pyrrolo[3,2-c]pyridin-2-yl]pyridin-2-yl}-2-(4-fluorophenyl)acetamide], the IC50 on human CSNK1A1 [1] stood at 9.68 nM; at human CSNK1D, 15 nM; on human CSNK1A1 [2], 907 nM; in experiment [3], 6030 nM.
For `O=C(Cc1ccc(F)cc1)Nc1cc(-c2[nH]c3c(c2Nc2ccccc2)C(=O)NC2(CCC2)C3)ccn1` [Example 57, N-[4-(3′-anilino-4′-oxo-1′,4′,5′,7′-tetrahydrospiro[cyclobutane-1,6′-pyrrolo[3,2-c]pyridin]-2′-yl)pyridin-2-yl]-2-(4-fluorophenyl)acetamide], the IC50 at human CSNK1A1 [1] amounted to 2.01 nM; on human CSNK1D, 3.1 nM; at human CSNK1A1 [2], 10.3 nM; in experiment [3], 870 nM.
Taken in the same sequence, the figures for `CN1CCc2[nH]c(-c3ccnc(NC(=O)Cc4ccncc4)c3)c(Nc3ccccc3)c2C1=O` [Example 64, N-[4-(3-anilino-5-methyl-4-oxo-4,5,6,7-tetrahydro-1H-pyrrolo[3,2-c]pyridin-2-yl)pyridin-2-yl]-2-(pyridin-4-yl)acetamide] were 2.65 nM, 5.51 nM, 31 nM and 1200 nM.
For `CN1CCc2[nH]c(-c3ccnc(NC(=O)Cc4ccc(S(C)(=O)=O)cc4)c3)c(Nc3ccccc3)c2C1=O` [Example 65, N-[4-(3-anilino-5-methyl-4-oxo-4,5,6,7-tetrahydro-1H-pyrrolo[3,2-c]pyridin-2-yl)pyridin-2-yl]-2-[4-(methanesulfonyl)phenyl]acetamide], the IC50 at human CSNK1A1 [1] amounted to 1.51 nM; on human CSNK1D it was 5.46 nM; on human CSNK1A1 [2], 17.5 nM; in experiment [3] it was 490 nM.
As for `CN1CCc2[nH]c(-c3ccnc(NC(=O)Cc4ccc(C(F)(F)F)cc4)c3)c(Nc3ccccc3)c2C1=O` [Example 66, N-[4-(3-anilino-5-methyl-4-oxo-4,5,6,7-tetrahydro-1H-pyrrolo[3,2-c]pyridin-2-yl)pyridin-2-yl]-2-[4-(trifluoromethyl)phenyl]acetamide], the IC50 came out at 2.75 nM on human CSNK1A1 [1], 5.57 nM at human CSNK1D, 33.5 nM at human CSNK1A1 [2] and 8550 nM in experiment [3].
Consider `CN1CCc2[nH]c(-c3ccnc(NC(=O)Cc4cccnc4)c3)c(Nc3ccccc3)c2C1=O` [Example 67, N-[4-(3-anilino-5-methyl-4-oxo-4,5,6,7-tetrahydro-1H-pyrrolo[3,2-c]pyridin-2-yl)pyridin-2-yl]-2-(pyridin-3-yl)acetamide], for which the IC50 is 2.41 nM at human CSNK1A1 [1], 3.79 nM at human CSNK1D, 44.6 nM on human CSNK1A1 [2] and 997 nM in experiment [3].
For `Cc1ccc(CC(=O)Nc2cc(-c3[nH]c4c(c3Nc3ccccc3)C(=O)N(C)CC4)ccn2)cc1` [Example 68, N-[4-(3-anilino-5-methyl-4-oxo-4,5,6,7-tetrahydro-1H-pyrrolo[3,2-c]pyridin-2-yl)pyridin-2-yl]-2-(4-methylphenyl)acetamide] the same measures were 3.2 nM, 3.63 nM, 74.2 nM and 2100 nM.
Regarding `CN1CCc2[nH]c(-c3ccnc(NC(=O)Cc4cccc(S(C)(=O)=O)c4)c3)c(Nc3ccccc3)c2C1=O` [Example 69, N-[4-(3-anilino-5-methyl-4-oxo-4,5,6,7-tetrahydro-1H-pyrrolo[3,2-c]pyridin-2-yl)pyridin-2-yl]-2-[3-(methanesulfonyl)phenyl]acetamide], the IC50 at human CSNK1A1 [1] amounted to 3.13 nM; on human CSNK1D, 4.68 nM; on human CSNK1A1 [2], 81.7 nM; in experiment [3], 510 nM.
On to `CN1CCc2[nH]c(-c3ccnc(NC(=O)Cc4ccc(C(F)F)cc4)c3)c(Nc3ccccc3)c2C1=O` [Example 78, N-[4-(3-anilino-5-methyl-4-oxo-4,5,6,7-tetrahydro-1H-pyrrolo[3,2-c]pyridin-2-yl)pyridin-2-yl]-2-[4-(difluoromethyl)phenyl]acetamide], for which the IC50 at human CSNK1A1 [1] came out at 2.95 nM; at human CSNK1D it was 7.93 nM; at human CSNK1A1 [2], 95.5 nM; in experiment [3], 3090 nM.
With `CN1CCc2[nH]c(-c3ccnc(NC(=O)Cc4ccc(F)cc4F)c3)c(Nc3ccccc3)c2C1=O` [Example 82, N-[4-(3-anilino-5-methyl-4-oxo-4,5,6,7-tetrahydro-1H-pyrrolo[3,2-c]pyridin-2-yl)pyridin-2-yl]-2-(2,4-difluorophenyl)acetamide], the IC50 is 2.26 nM at human CSNK1A1 [1], 5.52 nM at human CSNK1D, 162 nM on human CSNK1A1 [2] and 1150 nM in experiment [3].
`CN1CCc2[nH]c(-c3ccnc(NC(=O)Cc4ccc(F)c(F)c4)c3)c(Nc3ccccc3)c2C1=O` [Example 83, N-[4-(3-anilino-5-methyl-4-oxo-4,5,6,7-tetrahydro-1H-pyrrolo[3,2-c]pyridin-2-yl)pyridin-2-yl]-2-(3,4-difluorophenyl)acetamide]: the IC50 stood at 3.03 nM on human CSNK1A1 [1], 7.3 nM on human CSNK1D, 61.4 nM at human CSNK1A1 [2] and 2920 nM in experiment [3].
On to `Cc1cc(CC(=O)Nc2cc(-c3[nH]c4c(c3Nc3ccccc3)C(=O)N(C)CC4)ccn2)ccn1` [Example 85, N-[4-(3-anilino-5-methyl-4-oxo-4,5,6,7-tetrahydro-1H-pyrrolo[3,2-c]pyridin-2-yl)pyridin-2-yl]-2-(2-methylpyridin-4-yl)acetamide], for which the IC50 was found to be 1.78 nM at human CSNK1A1 [1], 3.36 nM at human CSNK1D, 26.5 nM on human CSNK1A1 [2] and 937 nM in experiment [3].
For `CC1(C)Cc2[nH]c(-c3ccnc(NC(=O)Cc4ccc(F)cc4)c3)c(Nc3ccccc3F)c2C(=O)N1` [Example 86, N-{4-[3-(2-fluoroanilino)-6,6-dimethyl-4-oxo-4,5,6,7-tetrahydro-1H-pyrrolo[3,2-c]pyridin-2-yl]pyridin-2-yl}-2-(4-fluorophenyl)acetamide], the IC50 at human CSNK1A1 [1] was 4.44 nM; on human CSNK1D it was 9.48 nM; at human CSNK1A1 [2], 110 nM; in experiment [3] it was 6470 nM.
On to `O=C(Cc1ccc(F)cc1)Nc1cc(-c2[nH]c3c(c2Nc2cccc(F)c2Cl)C(=O)NCC3)ccn1` [Example 87, N-{4-[3-(2-chloro-3-fluoroanilino)-4-oxo-4,5,6,7-tetrahydro-1H-pyrrolo[3,2-c]pyridin-2-yl]pyridin-2-yl}-2-(4-fluorophenyl)acetamide], for which the IC50 on human CSNK1A1 [1] amounted to 2.57 nM; on human CSNK1D, 6.02 nM; on human CSNK1A1 [2], 64.7 nM; in experiment [3] it was 158 nM.
As to `CC1(C)Cc2[nH]c(-c3ccnc(NC(=O)Cc4ccc(F)cc4)c3)c(Nc3cccc(F)c3Cl)c2C(=O)N1` [Example 112, N-{4-[3-(2-chloro-3-fluoroanilino)-6,6-dimethyl-4-oxo-4,5,6,7-tetrahydro-1H-pyrrolo[3,2-c]pyridin-2-yl]pyridin-2-yl}-2-(4-fluorophenyl)acetamide], the IC50 stood at 6.69 nM on human CSNK1A1 [1], 8.41 nM at human CSNK1D, 167 nM at human CSNK1A1 [2] and 3430 nM in experiment [3].
For the molecule `CN1CCc2[nH]c(-c3ccnc(NC(=O)Cc4cnccn4)c3)c(Nc3ccccc3)c2C1=O` [Example 114, N-[4-(3-anilino-5-methyl-4-oxo-4,5,6,7-tetrahydro-1H-pyrrolo[3,2-c]pyridin-2-yl)pyridin-2-yl]-2-(pyrazin-2-yl)acetamide], the IC50 was determined as 2.43 nM on human CSNK1A1 [1], 4.7 nM at human CSNK1D, 227 nM at human CSNK1A1 [2] and 2060 nM in experiment [3].
Consider `CN1CCc2[nH]c(-c3ccnc(NC(=O)Cc4ccccn4)c3)c(Nc3ccccc3)c2C1=O` [Example 115, N-[4-(3-anilino-5-methyl-4-oxo-4,5,6,7-tetrahydro-1H-pyrrolo[3,2-c]pyridin-2-yl)pyridin-2-yl]-2-(pyridin-2-yl)acetamide], for which the IC50 at human CSNK1A1 [1] is 2.41 nM; on human CSNK1D, 5.09 nM; on human CSNK1A1 [2], 248 nM; in experiment [3], 3670 nM.
For `CN1CCc2[nH]c(-c3ccnc(NC(=O)Cc4cccc(C(F)(F)F)c4)c3)c(Nc3ccccc3)c2C1=O` [Example 116, N-[4-(3-anilino-5-methyl-4-oxo-4,5,6,7-tetrahydro-1H-pyrrolo[3,2-c]pyridin-2-yl)pyridin-2-yl]-2-[3-(trifluoromethyl)phenyl]acetamide] the same measures were 18.6 nM, 54.4 nM, 453 nM and > 20000 nM.

Source of the values: patent US12227501B2, “3-amino-2-[2-(acylamino)pyridin-4-yl]-1,5,6,7-tetrahydro-4h-pyrrolo[3,2-c]pyridin-4-one as CSNK1 inhibitors” (Bayer Aktiengesellschaft, priority 2019, dated 2025).
